The values below come from patent publication EP4682141A1, “TRICYCLIC COMPOUND” (ONO Pharmaceutical Co., Ltd., priority 2023, dated 2024).

Some results are limits rather than exact numbers.

The target in one experiment is T1, EP4 (Homo sapiens, UniProt P35408).
T1 construct: expressed in transfected cells; host or cells: CHO (EP4-CHO)
Briefly: agonist activity on human EP4 receptor (cAMP production, EP4-CHO cells). In kind it is cell-based. The method, then: (§1) Using CHO cells (EP1-CHO, EP2-CHO, EP3-Chem1, EP4-CHO and IP-CHO) on which various human prostanoid receptors were forcibly expressed, the agonist activity of the test compound on the various prostanoid receptors was examined using the intracellular calcium concentration for EP1 and EP3, and the intracellular cyclic AMP (hereinafter, abbreviated as cAMP) production amount for EP2, EP4 and IP as indices.
(§2) The test compound and control substances (PGE2 and iloprost) were dissolved in dimethyl sulfoxide (DMSO) to prepare a 10 mmol/L solution. […]
(§3) On the day of the measurement, EP2-CHO, EP4-CHO, and IP-CHO were obtained by thawing frozen cells. […] The cAMP concentration was measured using a cAMP HTRF HiRange kit (CIS bio International). […] After incubation for 1 hour, time-resolved fluorescence at 620 nm and 660 nm when excited at 340 nm was measured using Synergy Neo (Bioteck), and the ratio (TRF ratio) was determined to calculate the cAMP concentration from the calibration curve.

In a further experiment the target is T2, EP3 receptor (Homo sapiens, UniProt P43115).
T2 construct: expressed in transfected cells; host or cells: EP3-Chem1
T2 sequence (P43115 1-390): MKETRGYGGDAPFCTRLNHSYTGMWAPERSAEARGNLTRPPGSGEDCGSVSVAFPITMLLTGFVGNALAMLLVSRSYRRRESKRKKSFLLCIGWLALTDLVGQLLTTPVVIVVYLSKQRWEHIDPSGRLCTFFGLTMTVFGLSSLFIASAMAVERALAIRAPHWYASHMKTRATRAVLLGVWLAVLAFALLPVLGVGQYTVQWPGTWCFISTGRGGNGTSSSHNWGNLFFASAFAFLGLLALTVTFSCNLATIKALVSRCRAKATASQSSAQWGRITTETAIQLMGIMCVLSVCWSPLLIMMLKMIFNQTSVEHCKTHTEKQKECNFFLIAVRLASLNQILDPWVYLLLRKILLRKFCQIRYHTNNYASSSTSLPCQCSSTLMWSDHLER
The experiment is described as follows: agonist activity on human EP3 receptor (intracellular calcium concentration, EP3-Chem1 cells). In kind it is cell-based. Conditions: agonist activity on the EP3 receptor. The procedure: as §1
(§4) The test compound and control substances (PGE2 and iloprost) were dissolved in dimethyl sulfoxide (DMSO) to prepare a 10 mmol/L solution. The prepared 10 mmol/L solution was thawed at the time of use, serially diluted using DMSO, and diluted with a buffer solution 1 for measurement (Hank's balanced salt solution (Thermofischer scientific) containing 1 w/v% human serum albumin (Sigma), 2 µmol/L indomethacin (Sigma), 2.5 mmol/L probenecid, and 10 mmol/L HEPES-NaOH (pH7.4)) or a buffer solution 2 for measurement (D-PBS (Nacalai Tesque) containing 0.1 w/v% human serum albumin, 2 µmol/L diclofenac (Sigma), and 1 mmol/L 3-isobutyl-1-methylxanthine (Sigma)) to perform experiments.
(Calcium flux is commonly read through the fluorescence of an indicator in the cells.)

The target in the next experiment is T3, EP1 (Homo sapiens, UniProt P34995).
T3 construct: expressed in transfected cells; host or cells: CHO (EP1-CHO)
T3 sequence (P34995 1-402): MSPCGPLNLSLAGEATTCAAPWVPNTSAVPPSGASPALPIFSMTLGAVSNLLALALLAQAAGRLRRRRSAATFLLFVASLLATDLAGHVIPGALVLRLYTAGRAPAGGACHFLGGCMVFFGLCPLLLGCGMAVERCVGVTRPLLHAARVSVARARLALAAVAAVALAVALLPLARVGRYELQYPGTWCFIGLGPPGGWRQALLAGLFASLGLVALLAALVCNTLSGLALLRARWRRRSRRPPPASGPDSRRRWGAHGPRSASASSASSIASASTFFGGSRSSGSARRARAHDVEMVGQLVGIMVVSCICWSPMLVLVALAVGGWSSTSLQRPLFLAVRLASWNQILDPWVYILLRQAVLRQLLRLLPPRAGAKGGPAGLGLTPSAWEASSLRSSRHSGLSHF
Briefly: agonist activity on human EP1 receptor (intracellular calcium concentration, EP1-CHO cells). In kind it is cell-based. The procedure:
as §1, §4
The intracellular calcium concentration was measured using Calcium 6 Assay Kit (Molecular Devices). On the day before the measurement, EP1-CHO and EP3-Chem 1 were obtained by thawing the frozen cells, suspended using Ham's F-12 medium (Thermofischer scientific) containing inactivated (56°C, 30 min) 9.8 vol% FBS (Thermofischer scientific) and penicillin-streptomycin (Nacalai Tesque), seeded into a 96 well UV plate to 1.0×10^5 cells per well, and static cultured at 37°C in the presence of 5%CO2. On the day of the measurement, the medium was removed, followed by addition of 120 µL of the Calcium indication solution dissolved in the buffer solution 1 for measurement and incubation at room temperature under light-shielding for about 1 hour. After 1 hour incubation, the 96 well UV plates were set in a fluorescence spectrophotometer (FDSS-7000, Hamamatsu Photonics) to measure the intracellular calcium concentration. Thirty microliters of the buffer solution 1 for measurement containing various concentrations of agonists were added, and the mixture was reacted. The intracellular calcium concentration was measured by irradiating the cells with 480 nm excitation light and measuring the fluorescence intensity at 540 nm.

A further experiment concerns the target T4, EP2 (Homo sapiens, UniProt P43116).
T4 construct: expressed in transfected cells; host or cells: CHO (EP2-CHO)
Briefly: agonist activity on human EP2 receptor (cAMP production, EP2-CHO cells). In kind it is cell-based. The method, then:
as §1, §2, §3
(In general: Changes in cAMP serve as a functional read-out for many G protein-coupled receptors.)

In a further experiment the target is T5, IP (Homo sapiens, UniProt P43119).
T5 construct: expressed in transfected cells; host or cells: CHO (IP-CHO)
The experiment is described as follows: agonist activity on human IP receptor (cAMP production, IP-CHO cells). The format is cell-based. The procedure:
as §1, §2, §3

Experiment [1] relates to diabetic renal disease model rat. The experiment is described as follows: in vivo drug efficacy in diabetic renal disease model rat (single kidney removal, saline). The arrangement: species or system SDT.Cg-Leprfa/JttJcl (SDT-fatty rat). The note with it: 8 weeks after the start of administration. The procedure:
A diabetic renal disease model was created by extracting the unilateral kidneys of male SDT.Cg-Leprfa/JttJcl (SDT-fatty/Jcl, CLEA Japan) rats, a type 2 diabetes model, and then giving saline. The in vivo drug efficacy of the present compound on diabetic renal disease was evaluated in this model.
Male SDT.Cg-Leprfa/JttJcl (SDT-fatty rat) aged 4 weeks was purchased from CLEA Japan, and subjected to experiments. The animals were fed ad libitum with Purina5008 (Japan SLC) from the time of arrival, and watered ad libitum. Water was given from the arrival and until 1 week from single kidney removal, and a 0.2 w/v% NaCl solution was given 1 week after single kidney removal.
After acclimation breeding, the body weight was measured, and buprenorphine was subcutaneously administered at a dose of 0.01 mg/kg under inhalation anesthesia with isoflurane (Mayran). After removing hair from the right abdomen of the rat, the right abdomen was disinfected with ethanol and isodine for disinfection and incised to expose the right kidney. The renal artery and vein was ligated with a suture to stop the blood flow, the right kidney was totally removed, and the incision was sutured. The following day, analgesic buprenorphine was administered subcutaneously at a dose of 0.01 mg/kg.
Grouping was performed 3 weeks after single kidney removal. The mice were divided into groups so that the average of the above parameters was almost equal between the groups on the basis of body weight, serum urea nitrogen (BUN), serum creatinine (S-CRE), serum total cholesterol (T-CHO), blood glucose level (GLU), neutral fat (TG), urinary protein (U-TP), urinary albumin (U-ALB), and creatinine clearance (CCr).
All of the compounds of Examples 25-7, 10, 11 and 12 were orally administered once a day for 8 weeks in combination with losartan (30 mg/kg), a renin angiotensin system inhibitor, and canagliflozin (10 mg/kg), a glucose co-transporter inhibitor. The compounds of Examples 25-7, 10, 11 and 12, and losartan were each dissolved in water for injection (Otsuka Pharmaceutical), and canagliflozin was suspended in a 0.5% methyl cellulose solution (Fujifilm Wako Pure Chemical Corporation) to prepare an administration solution. In the Control-1 group, water for injection which is a vehicle of losartan or the compound of Examples 25-7, 10, 11 or 12 was orally administered at 5 mL/kg, and a 0.5% methylcellulose solution which is a vehicle of canagliflozin was orally administered at 2.5 mL/kg once a day for 8 weeks. In the Control-2 group, losartan (30 mg/kg) dissolved in water for injection was orally administered at an administration volume of 2.5 mL/kg, canagliflozin (10 mg/kg) suspended in a 0.5% methyl cellulose solution was orally administered at an administration volume of 2.5 mL/kg, and water for injection which is a vehicle of the compounds of Examples 25-7, 10, 11 and 12 was orally administered at an administration volume of 2.5 mL/kg once a day for 8 weeks. The administration dose is described in Table 8.
Blood was collected by puncturing the tail vein of the rat with an injection needle. Blood was collected in a tube for serum separation (BD Microtainer) and centrifuged to obtain serum. Urine was collected for 24 hours in a metabolic cage for rat under conditions in which a solid feed and water can be freely taken. The obtained urine sample was centrifuged, and the supernatant was subjected to measurement. The concentrations of BUN, S-CRE, T-CHO, TG, U-ALB, U-TP, GLU and U-CRE were measured by an automatic analyzer Hitachi 7180 (Hitachi High-Tech).

The subject of another experiment is diabetes model rat. The experiment is described as follows: inhibitory effect on the amount of albumin excreted in urine in diabetes model rat. In kind it is in vivo, SDT Fatty rats. The note with it: urine collected for 24 hours, urine albumin/urine creatinine ratio. The method, then: Male SDT Fatty rats aged 6 weeks (CLEA Japan) were purchased and preliminarily bred for 1 week or more. Experiments were performed at 8 to 16 weeks of age. The animals were fed ad libitum with solid feed CRF-1 (Oriental Yeast) and watered ad libitum.
Animals were housed in metabolic cages 2 days before test substance administration, and urine was collected for 24 hours. On the day before administration of the test substance, urine albumin and urine creatinine were measured, and grouping was performed by a stratification randomization method based on the urine albumin/urine creatinine ratio (ACR) and the average value of body weights for each group.
The compounds (test substances) of Examples 9-5, 10, 11, 12, 25-7 and 32, and water for injection (Otsuka Pharmaceutical) as a vehicle were orally administered once at 5 mL/kg. The administration dose is described in Table 3.
For evaluation of the amount of albumin excreted in urine of each animal, a urine albumin/urine creatinine ratio (ACR) was measured. After administration of the test substance, the animals were housed in metabolic cages, and urine was collected for 24 hours. Each concentration of urine albumin and urine creatinine was measured using an automatic analyzer 7180 (Hitachi High-Tech), and ACR was calculated by dividing the urine albumin concentration by the urine creatinine concentration.

Experiment [2] deals with rat 5/6 kidney-removed model. The experiment is described as follows: in vivo drug efficacy on renal damage in rat 5/6 kidney-removed model. Also on record: species or system Jcl: Wistar (Wistar) rats. Conditions: after 8 weeks from the start of administration. The source says:
The obtained urine sample was centrifuged, and the supernatant was subjected to measurement.

T5 sequence (P43119 whole entry): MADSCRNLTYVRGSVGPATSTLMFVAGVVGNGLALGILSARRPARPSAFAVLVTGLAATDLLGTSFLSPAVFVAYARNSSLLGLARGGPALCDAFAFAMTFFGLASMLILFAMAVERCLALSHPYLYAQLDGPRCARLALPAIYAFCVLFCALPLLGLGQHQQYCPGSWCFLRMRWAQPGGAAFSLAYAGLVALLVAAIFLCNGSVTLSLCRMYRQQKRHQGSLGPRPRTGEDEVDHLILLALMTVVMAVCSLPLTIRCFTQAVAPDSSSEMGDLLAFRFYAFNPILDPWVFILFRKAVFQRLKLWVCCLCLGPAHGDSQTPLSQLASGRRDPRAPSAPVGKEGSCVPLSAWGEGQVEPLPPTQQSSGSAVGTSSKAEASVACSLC
T1 sequence (P35408 whole entry): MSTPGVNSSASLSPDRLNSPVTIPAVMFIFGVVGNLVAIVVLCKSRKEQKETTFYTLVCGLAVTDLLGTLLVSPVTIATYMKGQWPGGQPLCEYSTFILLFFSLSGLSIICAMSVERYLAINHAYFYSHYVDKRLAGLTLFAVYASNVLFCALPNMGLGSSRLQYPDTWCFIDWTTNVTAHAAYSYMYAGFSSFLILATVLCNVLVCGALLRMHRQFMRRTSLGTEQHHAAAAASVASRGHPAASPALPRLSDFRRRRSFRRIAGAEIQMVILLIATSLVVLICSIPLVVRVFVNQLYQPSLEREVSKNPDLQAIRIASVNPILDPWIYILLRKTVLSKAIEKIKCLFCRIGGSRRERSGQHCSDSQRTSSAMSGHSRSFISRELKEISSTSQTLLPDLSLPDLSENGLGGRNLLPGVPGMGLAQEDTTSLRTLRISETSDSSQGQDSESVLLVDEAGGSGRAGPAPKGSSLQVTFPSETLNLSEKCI
T4 sequence (P43116 whole entry): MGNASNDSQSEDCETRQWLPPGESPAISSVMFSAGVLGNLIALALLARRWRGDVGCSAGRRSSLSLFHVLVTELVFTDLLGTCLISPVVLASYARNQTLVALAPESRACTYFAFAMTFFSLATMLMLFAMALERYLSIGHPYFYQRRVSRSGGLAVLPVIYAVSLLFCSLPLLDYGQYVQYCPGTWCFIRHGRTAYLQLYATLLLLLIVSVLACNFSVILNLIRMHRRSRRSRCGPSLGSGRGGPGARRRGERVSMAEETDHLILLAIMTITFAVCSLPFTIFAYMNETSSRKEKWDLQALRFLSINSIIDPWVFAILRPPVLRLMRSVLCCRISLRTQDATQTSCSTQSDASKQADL

The term EC50 denotes the concentration needed to bring the measured effect to its halfway point. Consider “(1R,2R,3aS,10aR)-2,5-difluoro-1-[(1E,3ξ)-3-hydroxy-4-methyl-4-phenyl-1-penten-yl]-2,3,3a,9,10,10a-hexahydro-1H-benzo[b]cyclopenta[f]oxepine-6-carboxylic acid [Example 28]”, for which the concentration giving a half-maximal response (EC50) is 1.1 µM on EP4; 0.03 µM on EP3 receptor; above 10 µM on EP1; above 10 µM at EP2; above 10 µM on IP.

Take `Cc1c(C(=O)O)ccc2c1O[C@H]1C[C@@H](O)[C@H](/C=C/C[C@@](C)(O)CCC(F)=C(F)F)[C@H]1CC2` [Example 11, (1R,2R,3aS,10aR)-2-hydroxy-5-methyl-1-[(1E,45)-7,8,8-trifluoro-4-hydroxy-4-methyl-1,7-octadien-1-yl]-2,3,3a,9,10,10a-hexahydro-1H-benzo[b]cyclopenta[f]oxepine-6-carboxylic acid]: at EP1, the concentration giving a half-maximal response (EC50) is above 10 µM. In addition, the Serum creatinine mean is reported as 0.46 mg/dL in experiment [1] (0.01 mg/kg orally once a day for 8 weeks in combination with losartan (30 mg/kg) and canagliflozin (10 mg/kg)); 0.47 mg/dL in experiment [1] (0.03 mg/kg orally once a day for 8 weeks in combination with losartan (30 mg/kg) and canagliflozin (10 mg/kg)). Moreover, the ACR mean came out at 1010.5 µg/mg in the experiment on diabetes model rat (0.01 mg/kg orally once) and 575.3 µg/mg in the experiment on diabetes model rat (0.03 mg/kg orally once). The figures for the “Amount of albumin excreted in urine mean” value in experiment [2] (0.01 mg/kg orally once a day for 8 weeks) and in experiment [2] (0.03 mg/kg orally once a day for 8 weeks) were 46.01 mg/24 h and 37.94 mg/24 h, respectively.

For `CCC(CCC(C)C)C(O)/C=C/[C@@H]1[C@H]2CCc3ccc(C(=O)O)c(C)c3O[C@H]2C[C@H]1O` (stereo partly drawn) [Example 10, (1R,2R,3aS,10aR)-1-[(1E,3ξ,4ξ)-4-ethyl-3-hydroxy-7-methyl-1-octen-1-yl]-2-hydroxy-5-methyl-2,3,3a,9,10,10a-hexahydro-1H-benzo[b]cyclopenta[f]oxepine-6-carboxylic acid], the EC50 at EP1 was above 10 µM. Besides, the Serum creatinine mean in experiment [1] (0.1 mg/kg orally once a day for 8 weeks in combination with losartan (30 mg/kg) and canagliflozin (10 mg/kg)) came to 0.50 mg/dL. Also, the ACR mean with diabetes model rat (0.01 mg/kg orally once) was found to be 909.3 µg/mg; in the experiment on diabetes model rat (0.1 mg/kg orally once), 751.6 µg/mg. Moreover, the “Amount of albumin excreted in urine mean” value in experiment [2] (0.1 mg/kg orally once a day for 8 weeks) is 35.47 mg/24 h.
